Entries after “also recorded” stand apart in the source; their conditions may differ.

This note sets out measurements from patent US11497733B2, “Combination therapy of HSP90 inhibitors and PD-1 inhibitors for treating cancer” (Synta Pharmaceuticals Corp., priority 2015, dated 2022).

Assay [1] deals with MC38 colon carcinoma tumors. The assay can be described thus: MC38 colon carcinoma syngeneic mouse tumor model, tumor growth. Format: in vivo, C57 BL/6 mice. The conditions noted are these: established MC38 tumors; ganetespib 125 mg/kg days 8 and 15; αPD-L1 200 μg days 8, 12, 15; FIG. 1A. As for the experimental part:
Such findings support the premise that targeting HSP90 may represent a complementary and therapeutically advantageous approach together with immune checkpoint blockade for augmenting antitumor immune responses.
The HSP90 inhibitor ganetespib potentiates the antitumor efficacy of PD-L1 antibody treatment in syngeneic mouse tumor models. In FIG. 1 (a), C57 BL/6 mice bearing established MC38 colon carcinoma tumors (n=7/group) were treated with 200 μg IgG1 control or anti-PD-L1 antibody (αPD-L1; Sorrento Therapeutics, Inc., San Diego), either alone or in combination with 125 mg/kg ganetespib. Ganetespib was dosed on a weekly schedule (days 8 and 15), αPD-L1 was administered on days 8, 12, and 15. […] In FIG. 1 (b), C57 BL/6 mice bearing established B16 melanoma tumors (n=3/group) were dosed using a similar regimen as in (a).

In another assay the test system is MC38 tumors. The assay can be described thus: Gene expression array (NanoString) of MC38 tumors after a ganetespib dose. Format: in vivo, mice. As to the method: Mice with MC38 tumors received a dose of ganetespib. Tumors (3 per time point) were removed from the animals at 4, 24, 48 and 120 hr post dose. RNA was prepared and analyzed for gene expression using NanoString. Expression levels of genes were made by comparing drug treated tumors with vehicle-treated tumors.

Another assay relates to HCC827 cells. The assay can be described thus: MHC Class I surface expression on HCC827 cells, flow cytometry. Particulars: overnight incubation, FIG. 7A. Format: cell-based. As for the experimental part:
HCC827 cells were incubated with DMSO, Interferon gamma (IFNγ) or ganetespib and stained with anti MHC Class 1 antibodies and examined by flow cytometry to determine the number of molecules per cell surface.
(In general: Flow cytometry measures light scatter and fluorescence of single cells or particles in a stream.)

The next assay has as its system MC38 cells. Description: MHC Class I (H2-K) surface expression on MC38 cells, flow cytometry. It is filed as cell-based, mouse. Particulars: overnight, 100 nM ganetespib (sublethal), FIG. 7B. As to the method:
MC38 cells were incubated overnight with media+0.01% DMSO (dashed red line, light blue line), or media with 100 nM ganetespib (dotted red line, dark blue line). Cells were stained with an isotype control (red lines), or antibody to mouse H2-K (blue lines).

A further assay relates to MC38 tumor cells. The assay can be described thus: Chemokine production by MC38 tumor cells in vitro. The conditions noted are these: overnight, sublethal ganetespib with 300 U/ml TNFα, FIG. 8. Format: cell-based, mouse. As to the method:
(§1) MC38 or CT26 tumor cells were incubated with the indicated concentrations of ganetespib as shown in FIG. 8 in combination with 300 U/ml TNFα overnight and supernatants were collected and assayed for chemokines.

The test system of the next assay is CT26 tumor cells. The assay can be described thus: Chemokine production by CT26 tumor cells in vitro. It is filed as cell-based. Particulars: overnight, sublethal ganetespib with 300 U/ml TNFα, FIG. 8. As for the experimental part: as §1
Where [2] appears, read: within 48-120 hr after in vivo treatment, versus vehicle-treated tumors.

For the compound `CC(C)c1cc(-c2nnc(O)n2-c2ccc3c(ccn3C)c2)c(O)cc1O` [ganetespib, 3-(2,4-DIHYDROXY-5- ISOPROPYL-PHENYL)-4-(1- METHYL-INDOL-5-YL)-5- HYDROXY-[1,2,4] TRIAZOLE (GANETESPIB)], the “tumor growth suppression / antitumor efficacy” value in assay [1] was “comparable degree of tumor growth suppression to that seen following selective anti-PD-L1 antibody treatment”. Besides, the “influx of immune cells into tumors (gene expression)” value with MC38 tumors (after a single ganetespib administration, FIG. 6) is “influx of T cells, B cells and NK cells into tumors”. For the same compound, the “chemokines in tumor (gene expression)” value with MC38 tumors (after in vivo treatment, versus vehicle-treated tumors) is “Increases in a large number of chemokines”. In the assay with MC38 tumors (setting [2]), the “NK cells and CD8 cells in tumor (gene expression)” value was “increased numbers of NK cells and CD8 cells”; the “Treg cells in tumor (gene expression)” value is reported as “decreased Treg cells”. Besides, in the assay with HCC827 cells, the “number of HLA-ABC molecules/cell” value is listed as “doubled”. Besides, in the assay on MC38 cells, the “major histocompatibility antigen (MHC Class I, H2-K) expression” value is given as “upregulates major histocompatibility antigens, especially MHC Class I”. Further, the “chemokine production (CCL2, CCL5, CXCL10)” value with MC38 tumor cells is given as “induces chemokine production; also recorded: provokes production of chemokines by the tumor cells (CCL2, CCL5, CXCL10)”. The “chemokine production (CCL2, CCL5, CXCL10)” value in the assay on CT26 tumor cells is listed as “induces chemokine production; also recorded: provokes production of chemokines by the tumor cells (CCL2, CCL5, CXCL10)”.
